According to US20050197350A1, “Novel quinoline, tetrahydroquinazoline, and pyrimidine derivatives and methods of treatment related to the use thereof” (TAISHO PHARMACEUTICAL CO., LTD., priority 2003, published 2005):
Read-outs that look alike come from different tables or passages of the source.

Tested on: MCH receptors
Experiment: MCH receptor activity class (method not given)
[1] = MCH receptor, class by percent of control at 10^-7 M or IC50
[2] = class by percent of control at 10^-7 M or IC50
[3] = activity class per percent of control at 10^-7 M or IC50
[4] = class 1-3 by percent of control at 10^-7 M or IC50

## CN(C)c1nc(N[C@H]2CC[C@@H](NC(=S)NC3CC4CCC3C4)CC2)nc2c1CCCC2 (some centres unmarked) [compound 1995]
[1]
  class: 3 (Class 3 The value of percent of control at 10^−7 M was more than 60% or the value of IC50 was more than 200 nM.)

## CN(C)c1nc(N[C@H]2CC[C@@H](NC(=O)Nc3cc(Cl)c(Cl)cc3Cl)CC2)nc2c1CCCC2 [compound 1846]
[2]
  class: 2 (Class 2: The value of percent of control at 10^−7 M was from 40% to 60% or the value of IC′50 was from 50 nM to 200 nM.)

## CN(C)c1ccnc(N[C@H]2CC[C@@H](CNC(=O)c3cccc(Cl)c3)CC2)n1 [compound 369]
[2]
  class: 3 (Class 3 The value of percent of control at 10^−7 M was more than 60% or the value of IC50 was more than 200 nM.)

## CN(C)c1nc(N[C@H]2CC[C@@H](NC(=O)NCc3ccccc3)CC2)nc2c1CCCC2 [compound 1812]
[2]
  class: 3 (Class 3 The value of percent of control at 10^−7 M was more than 60% or the value of IC50 was more than 200 nM.)

## CCc1cccc(C(C)C)c1NC(=S)N[C@H]1CC[C@@H](Nc2nc3c(c(N(C)C)n2)CCCC3)CC1 [compound 1742]
[2]
  class: 3 (Class 3 The value of percent of control at 10^−7 M was more than 60% or the value of IC50 was more than 200 nM.)

## COc1cccc(C(=O)N[C@H]2CC[C@@H](Nc3cc(C)c4ccccc4n3)CC2)c1 [Example 2549, 3-methoxy-N-{cis-4-[(4-methylquinolin-2-yl)amino]cyclohexyl}benzamide]
  class: 1

## CN(C)c1nc(N[C@H]2CC[C@@H](CNC(=O)C3CC(=O)c4ccccc43)CC2)nc2c1CCCC2 (relative stereo) [compound 1071]
[3]
  class: 3 (Class 3 The value of percent of control at 10^−7 M was more than 60% or the value of IC50 was more than 200 nM.)

## CN(C)c1cc(N[C@H]2CC[C@@H](NC(=O)c3cnc4ccccc4c3)CC2)nc2ccccc12 [compound 776]
[2]
  class: 3 (Class 3 The value of percent of control at 10^−7 M was more than 60% or the value of IC50 was more than 200 nM.)

## Cc1cc(C)c(NC(=S)N[C@H]2CC[C@@H](Nc3cc(N(C)C)c4ccccc4n3)CC2)c(C)c1 [compound 2275, N-(cis-4-{[4-(dimethylamino)quinolin-2-yl]amino}cyclohexyl)-N′-mesitylthiourea]
[2]
  class: 1 (Class 1: The value of percent of control at 10^−7 M was less than 40% or the value of IC50 was less than 50 nM.)

## COc1cc([N+](=O)[O-])ccc1C(=O)N[C@H]1CC[C@@H](Nc2nccc(N(C)C)n2)CC1 [compound 910]
[2]
  class: 3 (Class 3 The value of percent of control at 10^−7 M was more than 60% or the value of IC50 was more than 200 nM.)

## CCCCCC(=O)NC[C@H]1CC[C@@H](Nc2nc3c(c(N(C)C)n2)CCCC3)CC1 [compound 602]
[2]
  class: 3 (Class 3 The value of percent of control at 10^−7 M was more than 60% or the value of IC50 was more than 200 nM.)

## Cc1cnc(N[C@H]2CC[C@@H](NCc3cccc(Cl)c3)CC2)nc1N(C)C [compound 2998]
Class by percent of control at 10^−7 M or IC50
  class: 3 (Class 3 The value of percent of control at 10^−7 M was more than 60% or the value of IC50 was more than 200 nM.)

## CN(C)c1ccnc(N[C@H]2CC[C@@H](NC(=O)c3csc4ccccc34)CC2)n1 [compound 309]
[2]
  class: 3 (Class 3 The value of percent of control at 10^−7 M was more than 60% or the value of IC50 was more than 200 nM.)

## COc1cc(CNC[C@H]2CC[C@@H](Nc3cc(N(C)C)c4ccccc4n3)CC2)cc(Br)c1OC [compound 1189]
[2]
  class: 3 (Class 3 The value of percent of control at 10^−7 M was more than 60% or the value of IC50 was more than 200 nM.)

## CN(C)c1nc(N[C@H]2CC[C@@H](NC(=O)/C=C/c3ccccc3)CC2)nc2c1CCCC2 [compound 462]
[4]
  class: 3 (Class 3 The value of percent of control at 10^−7 M was more than 60% or the value of IC50 was more than 200 nM.)

## COc1ccc(CNC[C@H]2CC[C@@H](Nc3cc(N(C)C)c4ccccc4n3)CC2)cc1OC [compound 1193]
[2]
  class: 3 (Class 3 The value of percent of control at 10^−7 M was more than 60% or the value of IC50 was more than 200 nM.)

## COC(CN[C@H]1CC[C@@H](Nc2nc3c(c(N(C)C)n2)CCCC3)CC1)c1ccccc1 (some centres unmarked) [compound 1483]
[2]
  class: 3 (Class 3 The value of percent of control at 10^−7 M was more than 60% or the value of IC50 was more than 200 nM.)

## CN(C)c1cc(N[C@H]2CC[C@@H](CNCc3ccc(OCc4ccc(Br)cc4)cc3)CC2)nc2ccccc12 [compound 1203]
[2]
  class: 3 (Class 3 The value of percent of control at 10^−7 M was more than 60% or the value of IC50 was more than 200 nM.)

## CN(C)c1nc(N[C@H]2CC[C@@H](NC(=O)Nc3ccc4c(c3)OCCCO4)CC2)nc2c1CCCC2 [compound 1734]
[2]
  class: 3 (Class 3 The value of percent of control at 10^−7 M was more than 60% or the value of IC50 was more than 200 nM.)

## COc1cccc(CNC[C@H]2CC[C@@H](Nc3cc(N(C)C)c4ccccc4n3)CC2)c1OC [compound 1176]
[2]
  class: 3 (Class 3 The value of percent of control at 10^−7 M was more than 60% or the value of IC50 was more than 200 nM.)

## COc1cc(Br)c(CNC[C@H]2CC[C@@H](Nc3nccc(N(C)C)n3)CC2)cc1OC [compound 1312]
[2]
  class: 2 (Class 2: The value of percent of control at 10^−7 M was from 40% to 60% or the value of IC′50 was from 50 nM to 200 nM.)

## CN(C)c1ccnc(N[C@H]2CC[C@@H](NC(=S)Nc3ccc(Br)cc3)CC2)n1 [compound 2257]
[2]
  class: 3 (Class 3 The value of percent of control at 10^−7 M was more than 60% or the value of IC50 was more than 200 nM.)

## CN(C)c1nc(N[C@H]2CC[C@@H](NC(=O)c3cc(C(F)(F)F)cc(C(F)(F)F)c3)CC2)nc2c1CCCC2 [compound 514]
[4]
  class: 1 (Class 1: The value of percent of control at 10^−7 M was less than 40% or the value of IC50 was less than 50 nM.)

## CN(C)c1ccnc(N[C@H]2CC[C@@H](CNCc3c[nH]c4ccc(Br)cc34)CC2)n1 [compound 1251]
[2]
  class: 1 (Class 1: The value of percent of control at 10^−7 M was less than 40% or the value of IC50 was less than 50 nM.)

## CN(C)c1cc(N[C@H]2CC[C@@H](CNC(=O)c3cccc([N+](=O)[O-])c3)CC2)nc2ccccc12 [compound 171, N-[(cis-4-{[4-(dimethylamino)quinolin-2-yl]amino}cyclohexyl)methyl]-3-nitrobenzamide]
[1]
  class: 3 (Class 3 The value of percent of control at 10^−7 M was more than 60% or the value of IC50 was more than 200 nM.)

## CCOC(=O)[C@H](CC(C)C)NC(=O)NC[C@H]1CC[C@@H](Nc2cc(N(C)C)c3ccccc3n2)CC1 (relative stereo) [compound 2363]
MCH receptor activity class 1-3 (percent of control at 10^-7 M or IC50)
  class: 3 (Class 3 The value of percent of control at 10^−7 M was more than 60% or the value of IC50 was more than 200 nM.)

## COc1ccc(CSC2(CC(=O)N[C@H]3CC[C@@H](Nc4nc5c(c(N(C)C)n4)CCCC5)CC3)CCCCC2)cc1 [compound 989]
[3]
  class: 3 (Class 3 The value of percent of control at 10^−7 M was more than 60% or the value of IC50 was more than 200 nM.)

## CN(C)c1ccnc(N[C@H]2CC[C@@H](NC(=O)NCc3ccccc3F)CC2)n1 [compound 2233]
[2]
  class: 3 (Class 3 The value of percent of control at 10^−7 M was more than 60% or the value of IC50 was more than 200 nM.)

## CN(C)c1nc(N[C@H]2CC[C@@H](NC(=O)Nc3ccc(Br)cc3Cl)CC2)nc2c1CCCC2 [compound 1883, N-(4-bromo-2-chlorophenyl)-N′-(cis-4-{[4-(dimethylamino)-5,6,7,8-tetrahydroquinazolin-2-yl]amino}cyclohexyl)urea]
[2]
  class: 2 (Class 2: The value of percent of control at 10^−7 M was from 40% to 60% or the value of IC′50 was from 50 nM to 200 nM.)
